Source: US3980794A, “Method for promoting growth of poultry with 3-(5-nitro-2-imidazolyl)pyrazoles” (Eli Lilly and Company, priority 1975, dated 1976)
Like-named read-outs stand apart in the source and are kept apart here.

What was measured:
[1] = test system: Propionibacterium acnes 44; experiment: Susceptibility of anaerobic bacteria, agar dilution; type: cell-based; conditions: Cutibacterium acnes, 24 h; Propionibacterium acnes 44; read-out: 24 Hr. Minimum Inhibitory Concentration
[2] = test system: Bacteroides fragilis sp. vulgatus 1211; experiment: as above; type: cell-based; conditions: Bacteroides fragilis, 24 h, read-out: 24 Hr. Minimum Inhibitory Concentration
[3] = test system: Fusobacterium symbiosum 1470; experiment: as above; type: cell-based; conditions: Fusobacterium, 1470, 24 h, read-out: 24 Hr. Minimum Inhibitory Concentration
[4] = test system: Pasteurella multocida, bovine strain; experiment: Oral activity against Pasteurella multocida, bovine strain, in mice (Experiment 3); type: in vivo, White Swiss mice; conditions: 100 g. per ton of feed; LD50 of control minus LD50 of treated group (log10 dilutions)
Procedure: White Swiss female mice weighing 15-20 g. each were used in the test. Seven groups of ten mice each were treated at a level of 100 g. of test compound per ton of feed. The animals received the medication in the feed for 2 days prior to challenge and for 7 days post challenge. Similar groups of mice on a ration without the antimicrobial agent were used as controls. Both the treated mice and the control groups of mice were challenged with log10 dilutions ranging from 10^-^2 through 10^-^8 of a 16 to 20-hour culture of Pasteurella multocida, bovine strain, at 0.1 ml. per mouse, administered subcutaneously. […] By subtracting the LD50 of each of the treated groups from that of the control group of mice, there was obtained a figure called the protective index.
In the chart, column 1 lists the test compound, identified in the same manner as set forth in Experiment 1; and column 2 lists the protective index.

Pasteurella multocida [5] = experiment: Efficacy against Pasteurella multocida infections in mice when administered by injection (Experiment 1); type: in vivo, Swiss mice; conditions: ip; for responders at 2.5 mg/kg: 2.5 mg./kg. i.p.; for responders at 5 mg/kg: 5.0 mg./kg. i.p.; for responders at 7.5 mg/kg: 7.5 mg./kg. i.p.
Procedure: The efficacy of the novel compounds against Pasteurella multocida infections in mice when administered by injection was studied.
Female Swiss mice weighing from 15 to about 20 g. were used. The test compound, 5.0 mg., was weighed out and dissolved in 0.5 ml. of dimethyl sulfoxide, and this solution was added to 9.5 ml. of sodium carboxymethylcellulose suspension. Groups of five mice each were injected intraperitoneally with 0.1 ml. each of the above-prepared test composition. This preparation gave a test rate of 2.5 mg. per kilo of body weight of mouse. The compounds were tested at 2.5, 5.0, or 7.5 mg. per kilo of body weight of mouse, and the test preparations for rates of 5.0 and 7.5 mg./kg. were prepared in a similar manner. Immediately after receiving the test compound, the mice were challenged using log10 dilutions of 10^-^4, 10^-^5, 10^-^6, and 10^-^7 of a 16 to 20-hour tryptose broth culture of Pasteurella multocida at 0.1 ml. per mouse subcutaneously. Similar groups of nontreated control mice were also challenged, the challenge being administered subcutaneously. The groups of mice were observed daily for mortality and the total mortality in treated groups compared with that which occurred in the nonmedicated control groups. Each test compound is identified by the number of the example describing its preparation.
In the chart, column 1 lists the test compound; column 2, the dosage of test compound in mg./kg. of mouse body weight; column 3, the dilution of the challenge organism; and column 4, the ratio of the number of mice surviving the test at each dosage and challenge dilution to the number of mice tested at each dosage and challenge dilution, called the survival ratio.

Salmonella typhimurium = experiment: Control of infections caused by Salmonella typhimurium in chickens, subcutaneous (Experiment 2); type: in vivo; conditions: Salmonella enterica, sc, 144 h, 6 days, read-out: Survival Ratio (converted); for responders at 7.5 mg/kg: 7.5 mg./kg. subcutaneous; for responders at 15 mg/kg: 15 mg./kg. subcutaneous; for responders at 30 mg/kg: 30 mg./kg. subcutaneous; for responders at 60 mg/kg: 60 mg./kg. subcutaneous
Pasteurella multocida [6] = experiment: Oral activity against Pasteurella multocida-caused infection in chickens (Experiment 5A); type: in vivo; conditions: 100 g./ton in feed
Procedure: A. Selected examples of the novel compounds were evaluated for their oral activity against Pasteurella multocida-caused infection in chickens. Four to five-week-old chickens were divided into groups of eight, and the compounds administered thereto in the feed. Two replicates were run for each compound. Twenty-four hours after the chickens began receiving the compound in their feed, the treated groups, as well as the nontreated control groups, were challenged intravenously with a broth culture of P. multocida. […] The chicks were observed during seven days following the challenge and the mortality in the treated groups was compared to that of the control group. The heart and liver were removed from each chicken which died during the test and cultured to determine the presence of P. multocida. At the termination of the test, all surviving chickens were sacrificed, the heart and liver removed from each chicken and cultured to determine the presence of P. multocida.

E. coli = experiment: Oral activity against E. coli infection in chickens (Experiment 6); type: in vivo
Procedure: The evaluation of the effectiveness of selected nitroimidazoles for their oral activity against E. coli infection in chickens was accomplished as follows.
Broiler type, five-week-old chickens were wing-banded and individually weighed. Replicates of 8 chickens, each replicate having the same average chicken weight, were formed. Three replicates were run for each treatment. Treatment was initiated via the feed 24 hours prior to challenge. The E. coli challenge strain was No. 2- 1- 8. The challenge inoculum consisted of 0.5 ml. of 10^-^1 dilution of a 15-18 hour tryptose broth culture administered into the right thoracic air sac of each chicken. Eight to ten days following challenge, all surviving chickens were weighed and examined for lesions. Any chicken that died during the experiment was also examined for lesions such as air sac lesions, pericarditis lesions, and perihepatitis lesions, and a culture made. The pre-treatment average weight per bird was 790 g. The test compounds were the same as before, identified as 1, 6, and 7.

[7] = challenge dilution 10^-^4, read-out: Survival Ratio (converted)
[8] = challenge dilution 10^-^5, read-out: Survival Ratio (converted)
[9] = challenge dilution 10^-^6, read-out: Survival Ratio (converted)
[10] = challenge dilution 10^-^4, read-out: Survival Ratio
[11] = challenge dilution 10^-^5, read-out: Survival Ratio
[12] = challenge dilution 10^-^6, read-out: Survival Ratio

| SMILES | MIC [1] [µg/mL] | MIC [2] [µg/mL] | MIC [3] [µg/mL] | Protective Index [4] | responders at 2.5 mg/kg (Pasteurella multocida [5]; [7]) [%] | responders at 2.5 mg/kg (Pasteurella multocida [5]; [8]) [%] | responders at 2.5 mg/kg (Pasteurella multocida [5]; [9]) [%] | responders at 5 mg/kg (Pasteurella multocida [5]; [7]) [%] | responders at 5 mg/kg (Pasteurella multocida [5]; [8]) [%] | responders at 5 mg/kg (Pasteurella multocida [5]; [9]) [%] | responders at 7.5 mg/kg (Pasteurella multocida [5]; [10]) [%] | responders at 7.5 mg/kg (Pasteurella multocida [5]; [11]) [%] | responders at 7.5 mg/kg (Pasteurella multocida [5]; [12]) [%] | responders at 7.5 mg/kg (Salmonella typhimurium) [%] | responders at 15 mg/kg (Salmonella typhimurium) [%] | responders at 30 mg/kg (Salmonella typhimurium) [%] | responders at 60 mg/kg (Salmonella typhimurium) [%] | Culture Isolation P. multocida (Pasteurella multocida [6]; replicate 1) | Survival Ratio (Pasteurella multocida [6]; replicate 1) | Culture Isolation P. multocida (Pasteurella multocida [6]; replicate 2) | other results |
| --- | --- | --- | --- | --- | --- | --- | --- | --- | --- | --- | --- | --- | --- | --- | --- | --- | --- | --- | --- | --- | --- |
| COC=Nc1c(C#N)c(-c2ncc([N+](=O)[O-])n2C)nn1C [Compound 6, Methyl N-[4-cyano-1-methyl-3-(1-methyl-5-nitro-2-imidazolyl)pyrazol-5-yl]formimidate] | > 32 | < 0.125 | < 0.125 | 4.3 | 90 | 50 | 90 | 80 | 90 | 100 | 90 | 90 | 100 | 90 | 50 | 50 | 46.7 | 0/ 8 | 8/ 8 | 0/ 8 | responders at 2.5 mg/kg (Pasteurella multocida [5]; challenge dilution 10^-^7, read-out: Survival Ratio (converted)): 100%; responders at 3.75 mg/kg (Salmonella typhimurium; 3.75 mg./kg. subcutaneous): 80%; Survival Ratio (Pasteurella multocida [6]; replicate 2): 8/ 8; Culture Isolation P. multocida (Pasteurella multocida [6]; total): 0/16; Survival Ratio (Pasteurella multocida [6]; total): 16/16; Avg. Wt./Chicken (E. coli; 100 g./ton in feed): 1098 g; No. chickens with lesions/No. in group (E. coli; 100 g./ton in feed): 11/24; Survival Ratio (E. coli; 100 g./ton in feed): 24/24; Avg. Wt./Chicken (E. coli; 200 g./ton in feed): 1059 g; No. chickens with lesions/No. in group (E. coli; 200 g./ton in feed): 1/24; Survival Ratio (E. coli; 200 g./ton in feed): 24/24; Avg. Wt./Chicken (E. coli; 300 g./ton in feed): 1055 g; No. chickens with lesions/No. in group (E. coli; 300 g./ton in feed): 6/24; Survival Ratio (E. coli; 300 g./ton in feed): 24/24 |
| CCCCOC=Nc1c(C#N)c(-c2ncc([N+](=O)[O-])n2C)nn1C [Compound 7, Butyl N-[4-Cyano-1-methyl-3-(1-methyl-5-nitro-2-imidazolyl)-pyrazol-5-yl]formimidate] | > 32 | < 0.125 | < 0.125 | 3.4 | 15 | 35 | 70 | 30 | 45 | 75 | 50 | 70 | 100 | 0 | 55 | 40 | 55 | 2/ 8 | 6/ 8 | 2/ 8 | Survival Ratio (Pasteurella multocida [6]; replicate 2): 8/ 8; Culture Isolation P. multocida (Pasteurella multocida [6]; total): 4/16; Survival Ratio (Pasteurella multocida [6]; total): 14/16; Avg. Wt./Chicken (E. coli; 100 g./ton in feed): 1023 g; No. chickens with lesions/No. in group (E. coli; 100 g./ton in feed): 15/24; Survival Ratio (E. coli; 100 g./ton in feed): 24/24; Avg. Wt./Chicken (E. coli; 200 g./ton in feed): 1033 g; No. chickens with lesions/No. in group (E. coli; 200 g./ton in feed): 23/24; Survival Ratio (E. coli; 200 g./ton in feed): 24/24; Avg. Wt./Chicken (E. coli; 300 g./ton in feed): 1132 g; No. chickens with lesions/No. in group (E. coli; 300 g./ton in feed): 6/24; Survival Ratio (E. coli; 300 g./ton in feed): 24/24 |
